Converted amounts (≈) assume the structure as drawn. The source made the active and inactive calls. The calls are words filed in the database; no cut-off is given here.
What was measured:
[1] = Cytotoxicity against HEL cells assessed as alteration in cell morphology; format: cell-based; settings: human
[2] = test system: Human alphaherpesvirus 1; assay: Antiviral activity against HSV1 KOS in E6SM cells assessed as reduction of virus-induced cytopathogenicity; format: functional, organism-based; settings: Human alphaherpesvirus 1, KOS
[3] = test system: Human betaherpesvirus 5; assay: Antiviral activity against HCMV AD169 in HEL cells assessed as reduction of virus plaque formation; format: functional, organism-based; settings: Human betaherpesvirus 5, AD169, HEL
[4] = test system: Human alphaherpesvirus 1; assay: Antiviral activity against thymidine kinase-deficient HSV1 B2006 in E6SM cells assessed as reduction of virus-induced cytopathogenicity; format: functional, organism-based; settings: Human alphaherpesvirus 1, B2006, E6SM
[5] = test system: Human alphaherpesvirus 2; assay: Antiviral activity against HSV2 G in E6SM cells assessed as reduction of virus-induced cytopathogenicity; format: functional, organism-based; settings: Human alphaherpesvirus 2, G
[6] = Cytotoxicity against E6SM cells assessed as alteration in cell morphology; format: cell-based; settings: human
[7] = test system: Human alphaherpesvirus 1; assay: Antiviral activity against thymidine kinase deficient HSV1 VMW1837 in E6SM cells assessed as reduction of virus-induced cytopathogenicity; format: functional, organism-based; settings: Human alphaherpesvirus 1, VMW1837, E6SM
[8] = test system: Sindbis virus; assay: Antiviral activity against Sindbis virus in vero cells assessed as reduction of virus-induced cytopathicity at 40 to >400 ug/mL; format: functional, organism-based
[9] = test system: Coxsackievirus B4; assay: Antiviral activity against Coxsackie virus B4 in HeLa cells at 40 to >400 ug/mL; format: functional, organism-based
[10] = test system: Human alphaherpesvirus 3; assay: Antiviral activity against TK+ VZV OKA in HEL cells assessed as reduction of virus plaque formation; format: functional, organism-based; settings: Human alphaherpesvirus 3, OKA
[11] = Inhibition of proliferation of mouse FM3A/O cells; format: functional, cell-based
[12] = test system: Human betaherpesvirus 5; assay: Antiviral activity against HCMV Davis in HEL cells assessed as reduction of virus plaque formation; format: functional, organism-based; settings: Human betaherpesvirus 5, Davis
[13] = test system: Human alphaherpesvirus 3; assay: Antiviral activity against thymidine kinase deficient VZV YS in HEL cells assessed as reduction of virus plaque formation; format: functional, organism-based; settings: Human alphaherpesvirus 3, YS
[14] = test system: FM3A; assay: Inhibition of proliferation of thymidine kinase deficient mouse FM3A cells expressing HSV2 thymidine kinase; format: functional, cell-based
[15] = Inhibition of proliferation of VZV thymidine kinase expressing OSTtk-/VZVtk+ -a cells; format: functional; settings: Homo sapiens
[16] = test system: Human alphaherpesvirus 3; assay: Antiviral activity against thymidine kinase deficient VZV 07/1 in HEL cells assessed as reduction of virus plaque formation; format: functional, organism-based; settings: Human alphaherpesvirus 3, 07/1, HEL
[17] = test system: Respiratory syncytial virus; assay: Antiviral activity against Respiratory syncytial virus in HeLa cells at 40 to >400 ug/mL; format: functional, organism-based
[18] = test system: Punta Toro virus; assay: Antiviral activity against Punta Toro virus in vero cells assessed as reduction of virus-induced cytopathicity at 20 to >400 ug/mL; format: functional, organism-based
[19] = test system: FM3A; assay: Inhibition of proliferation of thymidine kinase deficient mouse FM3A cells expressing HSV1 thymidine kinase; format: functional, cell-based
[20] = test system: Human respirovirus 3; assay: Antiviral activity against Parainfluenza 3 virus in vero cells assessed as reduction of virus-induced cytopathicity at 20 to >400 ug/mL; format: functional, organism-based
[21] = test system: FM3A; assay: Inhibition of proliferation of thymidine kinase deficient mouse FM3A cells; format: functional, cell-based
[22] = test system: Human alphaherpesvirus 3; assay: Antiviral activity against TK+ VZV YS in HEL cells assessed as reduction of virus plaque formation; format: functional, organism-based; settings: Human alphaherpesvirus 3, YS
[23] = Inhibition of proliferation of VZV thymidine kinase expressing OSTtk-/VZVtk+ -b cells; format: functional; settings: Homo sapiens
[24] = test system: Mammalian orthoreovirus 1; assay: Antiviral activity against Reovirus1 in vero cells assessed as reduction of virus-induced cytopathicity at 40 to >400 ug/mL; format: functional, organism-based
[25] = Cytotoxicity against HEL cells; format: cell-based; settings: human
[26] = test system: OST; assay: Inhibition of proliferation of thymidine kinase deficient OST cells; format: functional, cell-based; settings: Homo sapiens
[27] = test system: Vesicular stomatitis virus; assay: Antiviral activity against VSV in HeLa cells at 40 to >400 ug/mL; format: functional, organism-based
[28] = test system: Coxsackievirus B4; assay: Antiviral activity against Coxsackie virus B4 in HeLa cells; format: functional, organism-based; settings: Enterovirus B
[29] = test system: Vesicular stomatitis virus; assay: Antiviral activity against VSV in HeLa cells; format: functional, organism-based
[30] = test system: Punta Toro virus; assay: Antiviral activity against Punta Toro virus in vero cells; format: functional, organism-based
[31] = test system: Respiratory syncytial virus; assay: Antiviral activity against Respiratory syncytial virus in HeLa cells; format: functional, organism-based; settings: human respiratory syncytial virus
[32] = test system: Mammalian orthoreovirus 1; assay: Antiviral activity against Reovirus1 in vero cells; format: functional, organism-based; settings: Mammalian orthoreovirus 1, Vero
[33] = test system: Human alphaherpesvirus 3; assay: Antiviral activity against thymidine kinase deficient VZV YS/R in HEL cells assessed as reduction of virus plaque formation; format: functional, organism-based; settings: Human alphaherpesvirus 3, YS/R

Row | SMILES | MCC [1] | EC50 [2] | EC50 [3] | EC50 [4] | EC50 [5] | MCC [6] | EC50 [7] | Activity [8] | Activity [9] | EC50 [10] | IC50 [11] | EC50 [12] | IC50 [14] | IC50 [15] | EC50 [16] | Activity [17] | Activity [18] | IC50 [23] | CC50 [25] | IC50 [26] | further results
1 | Nc1nc2c(ncn2COC(CO)CO)c(=O)[nH]1 [GANCICLOVIR] | > 200 µM | 0.002 µg/mL (≈ 0.00784 µM) | 6300 nM | 0.7 µg/mL (≈ 2.74 µM) | 0.007 µg/mL (≈ 0.0274 µM) | > 100 µg/mL | 0.02 µg/mL (≈ 0.0784 µM) | – | – | – | – | – | – | – | – | – | – | – | – | – | –
2 | C#Cc1cn([C@H]2C[C@H](O)[C@@H](CO)O2)c(=O)[nH]c1=O | > 200 µM | 0.7 µg/mL (≈ 2.78 µM) | 1200 nM | 0.7 µg/mL (≈ 2.78 µM) | 2 µg/mL (≈ 7.93 µM) | > 400 µg/mL | 4 µg/mL (≈ 15.9 µM) | inactive | inactive | 160 nM | 180 nM | 850 nM | 390 nM | 83 nM | 810 nM | inactive | inactive | 160 nM | 2500 nM | 23000 nM | EC50 [13]: 750 nM; IC50 [19]: 130 nM; Activity [20]: inactive; IC50 [21]: ≥ 250000 nM; EC50 [22]: 110 nM; Activity [24]: inactive; Activity [27]: inactive
3 | C[Si](C)(C)C#Cc1cn([C@H]2C[C@H](O)[C@@H](CO)O2)c(=O)[nH]c1=O | 200 µM | 2 µg/mL (≈ 6.17 µM) | 1200 nM | 4 µg/mL (≈ 12.3 µM) | 7 µg/mL (≈ 21.6 µM) | > 400 µg/mL | 7 µg/mL (≈ 21.6 µM) | inactive | inactive | 260 nM | 230 nM | 750 nM | 480 nM | 41 nM | 690 nM | inactive | inactive | 200 nM | 180 nM | 23000 nM | EC50 [13]: 900 nM; IC50 [19]: 160 nM; Activity [20]: inactive; IC50 [21]: ≥ 250000 nM; EC50 [22]: 150 nM; Activity [24]: inactive; Activity [27]: inactive
4 | Nc1ccn(C[C@@H](CO)OCP(=O)(O)O)c(=O)n1 [CIDOFOVIR] | – | – | 660 nM | – | – | – | – | – | – | – | – | 660 nM | – | – | – | – | – | – | 121000 nM | – | –
5 | O=c1[nH]c(=O)n([C@@H]2O[C@H](CO)[C@@H](O)C2O)cc1/C=C/Br (single isomer, unassigned) [SORIVUDINE] | – | – | – | – | – | – | – | – | – | – | – | – | – | 150 nM | – | – | – | 200 nM | – | ≥ 250000 nM | –
6 | NC(=O)c1ncn([C@@H]2O[C@H](CO)[C@@H](O)[C@H]2O)n1 [RIBAVIRIN] | – | 70 µg/mL (≈ 287 µM) | – | 20 µg/mL (≈ 81.9 µM) | 150 µg/mL (≈ 614 µM) | 400 µg/mL | 70 µg/mL (≈ 287 µM) | – | – | – | – | – | – | – | – | – | – | – | – | – | IC50 [28]: 20 µg/mL (≈ 81.9 µM); IC50 [29]: 20 µg/mL (≈ 81.9 µM); IC50 [30]: 20 µg/mL (≈ 81.9 µM); IC50 [31]: 2 µg/mL (≈ 8.19 µM); IC50 [32]: 0.7 µg/mL (≈ 2.87 µM)
7 | C[Si](C)(C)C#Cc1cn([C@@H]2O[C@H](CO)[C@@H](O)[C@@H]2O)c(=O)[nH]c1=O | 200 µM | 0.7 µg/mL (≈ 2.06 µM) | > 50000 nM | 150 µg/mL (≈ 441 µM) | 2 µg/mL (≈ 5.88 µM) | 400 µg/mL | 150 µg/mL (≈ 441 µM) | inactive | inactive | 480 nM | ≥ 250000 nM | > 50000 nM | 290 nM | 750 nM | > 50000 nM | inactive | inactive | 1900 nM | 127000 nM | ≥ 176000 nM | IC50 [19]: 3800 nM; Activity [20]: inactive; IC50 [21]: ≥ 250000 nM; EC50 [22]: 330 nM; Activity [24]: inactive; EC50 [33]: > 50000 nM; Activity [27]: inactive
8 | Nc1nc2c(ncn2COCCO)c(=O)[nH]1 [ACYCLOVIR] | – | 0.02 µg/mL (≈ 0.0888 µM) | – | 40 µg/mL (≈ 178 µM) | 0.07 µg/mL (≈ 0.311 µM) | > 400 µg/mL | 7 µg/mL (≈ 31.1 µM) | – | – | – | – | – | – | – | – | – | – | – | – | – | –
9 | O=c1[nH]c(=O)n([C@H]2C[C@H](O)[C@@H](CO)O2)cc1C#CI | 200 µM | 2 µg/mL (≈ 5.29 µM) | 2500 nM | 2 µg/mL (≈ 5.29 µM) | 7 µg/mL (≈ 18.5 µM) | ≥ 100 µg/mL | 7 µg/mL (≈ 18.5 µM) | inactive | inactive | 180 nM | 300 nM | 580 nM | 350 nM | 63 nM | 890 nM | inactive | inactive | 120 nM | 760 nM | 34000 nM | EC50 [13]: 780 nM; IC50 [19]: 160 nM; Activity [20]: inactive; IC50 [21]: 87000 nM; EC50 [22]: 110 nM; Activity [24]: inactive; Activity [27]: inactive
10 | O=c1[nH]c(=O)n([C@H]2C[C@H](O)[C@@H](CO)O2)cc1/C=C/Br [BRIVUDINE] | – | 0.02 µg/mL (≈ 0.06 µM) | – | 40 µg/mL (≈ 120 µM) | 150 µg/mL (≈ 450 µM) | ≥ 400 µg/mL | 40 µg/mL (≈ 120 µM) | – | – | – | – | – | – | 600 nM | – | – | – | 350 nM | – | ≥ 250000 nM | –
11 | CC(=O)OC[C@H]1O[C@@H](n2cc(C#CI)c(=O)[nH]c2=O)[C@@H](OC(C)=O)[C@@H]1OC(C)=O | 50 µM | 20 µg/mL (≈ 38.4 µM) | > 20000 nM | > 10 µg/mL | 7 µg/mL (≈ 13.5 µM) | 40 µg/mL | > 10 µg/mL | inactive | inactive | 8500 nM | 18000 nM | > 20000 nM | 960 nM | 3600 nM | > 20000 nM | inactive | inactive | 3900 nM | 20000 nM | 5400 nM | EC50 [13]: > 20000 nM; IC50 [19]: 5400 nM; Activity [20]: inactive; IC50 [21]: 20000 nM; EC50 [22]: 3100 nM; Activity [24]: inactive; Activity [27]: inactive
12 | C#Cc1cn([C@@H]2O[C@H](CO)[C@@H](O)[C@@H]2O)c(=O)[nH]c1=O | 200 µM | – | – | – | – | 400 µg/mL | – | – | – | – | – | – | – | – | – | – | – | – | – | – | –

Source: ChEMBL document CHEMBL1143708, “5-alkynyl analogs of arabinouridine and 2'-deoxyuridine: cytostatic activity against herpes simplex virus and varicella-zoster thymidine kinase gene-transfected cells” (J Med Chem, 2007)
